{"source": "patent US8044103B2", "about": "“Cyclic dipeptides and azetidinone compounds and their use in treating CNS injury and neurodegenerative disorders” (Georgetown University, priority 1998, dated 2011)", "key": {"[1]": {"system": "mice following controlled cortical impact injury (CCI)", "assay": "Morris watermaze, place learning version, after controlled cortical impact injury", "type": "in vivo, Male C57Bl/6 mice", "method": "Male C57Bl/6 mice (20-25 g) were obtained from Taconic Farms (Germantown, N.Y.) and housed in an area directly adjoining surgical and behavioral rooms for at least 1 week prior to any procedures. All mice were maintained at a constant temperature (22±2° C.) and a 12 hr light/dark cycle, with lights on at 6 am and all behavioral testing performed during the light cycle. Food and water were available ad libitumn.\nSurgical anesthesia was induced and maintained with 4% and 2% isoflurane respectively, using a flow rate of 1.0-1.5 l oxygen per minute. Depth of anesthesia was assessed by monitoring respiration rate and palpebral and pedal-withdrawal reflexes. The animal was then placed onto a heated pad and core body temperature was monitored and maintained at 38+/−0.2° C. The head was mounted in a stereotaxic frame and the surgical site clipped and prepared with a series of three Nolvasan scrubs followed by sterile saline rinses. A 10 mm mid-line incision was made over the skull, the skin and fascia reflected, and a 4 mm craniotomy made on the central aspect of the left parietal bone with a tissue punch (Roboz, USA). Great care was taken with the removal of the parietal bone to avoid injury to the underlying dura mater which was continuously bathed in sterile normal saline warmed to 37.5° C. The impounder tip of the pneumatic injury device was cleaned with a pad, soaked in absolute alcohol, positioned to the surface of the exposed dura and automatically withdrawn the 44 mm stroke distance. Following injury at a moderate (6.0 m/s velocity, 1 mm tissue deformation depth) level, the incision was closed with interrupted 6-0 silk sutures, anaesthesia was discontinued and the mouse was placed into a heated cage to maintain normothermia for 45 minutes post-injury. All animals were monitored carefully for at least 4 hours post-surgery and then daily. To minimize variation between animals due to anaesthesia during acute neurological testing, 20 minutes was allowed for surgery and 5 minutes for suturing for each animal.\n[…] The values for n represents the number of mice in the particular treatment group. The investigator was blinded to drug treatment both at the time of surgery and for neurological and behavioral scoring.\nThe Morris watermaze (Morris, 1984, J. Neurosci. Meth. 22:47-60) is employed to assess spatial learning by training mice to locate a hidden, submerged platform using extramaze visual information. The apparatus consists of a large, white circular pool (900 mm diameter, 500 mm high, water temperature 24±1° C.) with a plexiglass platform 76 mm diameter painted white and submerged 15 mm below the surface of water (225 mm high) which is rendered opaque with the addition of dilute, white, non-toxic paint. During training, the platform is hidden in one quadrant 14 cm from the side wall. The mouse is gently placed into the water facing the wall at one of four randomly-chosen locations separated by 90 degrees. The latency to find the hidden platform within a 90 second criterion time is recorded by a blinded observer. […]\nContinuous variables compared across groups are examined using an analysis of variance (ANOVA) followed by Bonferroni correction (acute reflexes). Continuous variables subjected to repeated measurements over a period of time (beam walking, Morris water maze) are analyzed using a repeated measurements ANOVA followed by Tukey's pairwise comparison at each time point. […]"}, "[2]": {"system": "mice following controlled cortical impact injury (CCI)", "assay": "Morris watermaze, working memory version, after controlled cortical impact injury", "type": "in vivo, Male C57Bl/6 mice", "conditions": "1.0 mg/kg at 30 min following CCI; day 24 after trauma; p<0.05", "method": "FIG. 7 provides a graph illustrating the latency of finding a hidden platform in a working memory version of the Morris watermaze for uninjured control mice (sham+saline) and mice treated with normal saline (CCI+saline) or 1.0 mg/kg Compound 2a (CCI+Compound 2a) at 30 min. following controlled cortical injury (CCI). Filled bars (▪) represent the first of two consecutive trials; unfilled bars ( ? ) represent the second of two consecutive trials. Results are expressed as daily means±SEM for each group over four trial pairs. * indicates p<0.05 with respect to uninjured controls (sham+saline); # indicates p<0.05 with respect to injured saline-treated controls (CCI+saline).\nConscious mice were placed in a mouse restrainer and injected via the lateral tail vein with either normal saline (injured controls; n=6), 1 mg/kg Compound 2a (n=8), Compound 10b (n=6), Compound 11b (n=6) or Compound 14c (n=6) at 30 minutes following controlled cortical impact injury (CCI). The values for n represents the number of mice in the particular treatment group. The investigator was blinded to drug treatment both at the time of surgery and for neurological and behavioral scoring.\nTo determine the effect of CCI on working memory, the daily mean latency (+SEM) to find the goal platform on both trials was calculated for each group. […]"}}}
{"compound": "O=C1NC2(CCCCC2)C(=O)N2CCC[C@@H]12", "note": "[Compound 2a, Cyclo[(1-Amino-1-Cyclohexane-Carboxylic Acid)-Pro]]", "values": [{"measurement": "latency to find hidden platform (place learning) versus sham-operated controls, day 8", "setting": "[1]; 1.0 mg/kg at 30 min following CCI, day 8, p<0.001", "result": "significantly different from sham-operated controls"}, {"measurement": "latency to find hidden platform (place learning) versus sham-operated controls, day 9", "setting": "[1]; 1.0 mg/kg at 30 min following CCI, day 9 (third day of training), p>0.05, out-performing saline-treated", "result": "no longer significantly different from sham-operated controls"}, {"measurement": "latency to find goal platform (place learning) versus saline-treated injured mice, last day of training", "setting": "[1]; 1.0 mg/kg at 30 min following CCI, day 10, p<0.01", "result": "significantly improved latencies"}, {"measurement": "place-learning compared with saline-treated controls (CCI+saline), dose-response experiments", "setting": "[1]; 0.1, 1.0 or 10.0 mg/kg at 60 min following CCI, 10 days post-surgery, all treatment groups", "result": "improved place-learning"}, {"measurement": "dose giving the most improved learning (place learning watermaze)", "setting": "[1]; 0.1, 1.0 or 10.0 mg/kg at 60 min following CCI, by 10 days post-surgery", "result": 10, "unit": "mg/kg"}, {"measurement": "latency to goal platform, first of trial pair (reference memory), versus untreated injured animals", "setting": "[2]", "result": "significantly improved"}, {"measurement": "latency to goal platform, second of trial pair (working memory), versus untreated injured animals", "setting": "[2]", "result": "significantly improved"}]}
